In paper PMC9367672, “In vitro differences in toddalolactone metabolism in various species and its effect on cytochrome P450 expression” (Pharmaceutical Biology, 2022):

Columns and labels:
CYP1A1 = assay: Western blot of CYP1A1 protein expression in HepG2 cells; assay type: cell-based; conditions: 50 μM, 24 h, vs control (0 μM), p < 0.05
Experimental: Hep G2 cells were seeded into 100 mm Petri dishes and treated with different concentrations of toddalolactone (0, 10 and 50 µmol/L) for 24 h. Total protein was extracted using RIPA lysis buffer containing proteinase inhibitor (BestBio, Shanghai, China). After the protein concentration was measured using a bicinchoninic acid (BCA) assay kit (Beyotime, Shanghai, China), samples were electrophoretically transferred to polyvinylidene difluoride (PVDF) membranes. After blocking with TTBS (0.5% Tween 20, 10 mM Tris-HCl, pH 7.5, 150 mM NaCl) containing 5% non-fat milk for 1 h at room temperature, the membrane was incubated with antibodies against β-Actin, CYP1A1, and CYP3A5 overnight at 4 °C. Then, membranes were washed with TBS (10 mM Tris-HCl, pH 7.5, 150 mM NaCl) containing 0.05% Tween 20 three times and further incubated with HRP-conjugated secondary antibodies against rabbit (for β-actin, CYP1A1 and CYP3A5) for 1 h at room temperature.

[1] = Metabolic stability assessment in mouse liver microsomes; assay type: in vitro ADME; conditions: pH 7.4, MIMs, CYP incubation system, toddalolactone 20 μM, 0-90 min, read-out: half-life value (T1/2)
Experimental: The CYP reaction system (200 μL) consisted of 0.1 M potassium phosphate buffer (pH 7.4), an NADPH-generating system (1 mM NADPH, 10 mM G-6-P, 1 unit/mL G-6-PD, 4 mM MgCl2), and liver microsomes or recombinant human microsomes (supersomes). Each of the in vitro enzymatic assays using liver microsomes was linear with respect to incubation time and amount of protein. After a pre-incubation at 37 °C for 3 min, the reactions were initiated by adding NADP^+. After incubating for 60 min, the reactions were quenched by adding 200 μL of ice-cold acetonitrile. Samples were centrifuged at 18,000 g for 15 min at 4 °C and 10 μL of supernatant was analyzed using an HPLC system. […]
In the UGT reaction system, liver microsomes were incubated in 200 μL of the reaction system containing 4 mM UDPGA, 5 mM MgCl2, 20 µg/mL alamethicin, and 50 mM Tris-HCl buffer (pH 7.4). […] After centrifugation at 18,000 g for 15 min, 10 μL of the supernatant was analyzed by HPLC.
Toddalolactone (20 μM) was incubated with different liver microsomes, including HLMs, DLMs, PLMs, MLMs, RAMs, RLMs or MIMs in oxidative metabolism and glucuronidation reaction systems. […] The mixtures were centrifuged at 18,000 g for 15 min at 4 °C and then 10 μL of the supernatant was analyzed by HPLC. […]
The peak areas of toddalolactone and its metabolites were detected using a HPLC system (Shimadzu, Kyoto, Japan). […]

For `COc1cc2oc(=O)ccc2c(OC)c1C[C@@H](O)C(C)(C)O` [toddalolactone], the “induction of CYP1A1 protein expression higher than that of the control” value (CYP1A1) was “approximately 50%” and the half-life at 20 μM [1] was 3.92 ± 0.35 h.
